Measurements reported in PubChem BioAssay AID651996 (Sanford-Burnham Center for Chemical Genomics, 2013).
Activity calls are given as the source filed them.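 How the source made its calls: active means compounds whose half-maximal inhibitory concentration of the SKN-1 reporter ratio in worms is 20 µM or lower; inactive means the rest.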

Test system: C. elegans VP596 Pgst-4::GFP/RFP ratio, acrylamide-induced, 24 h
Test: SKN-1 inhibitor analogs in C. elegans, SAR follow-up, whole organism, GFP/RFP fluorescence ratio, strain VP596 (AID 651996)

Compound	IC50
CCOc1cc(CNCCSc2nnnn2C)cc(Br)c1OCc1ccc(F)cc1	17 µM
Clc1ccc(Nc2nc(-c3cccs3)cs2)nc1	8.93 µM
O=C(Nc1ccc(CN2CCOCC2)cc1)c1cc2ccccc2o1	18 µM
Fc1ccc(-c2csc(Nc3ccccn3)n2)cc1	3.81 µM
CC(C)c1ccc(C(=O)Nc2ccc(CN3CCOCC3)cc2)cc1	4.74 µM
c1ccc2oc(SCc3nc4ccccc4s3)nc2c1	15.5 µM
O=C(Nc1nc(-c2ccc(Cl)s2)cs1)c1ccccc1	13 µM
Clc1ccc(-c2nnc(-c3ccccc3)o2)c(Cl)c1	0.64 µM
CSc1cccc(NC(=O)c2cccc3cccnc23)c1	9.32 µM
O=C(/C=C/c1ccccc1)Nc1ccc(CN2CCOCC2)cc1	14.8 µM
O=C(/C=C/c1ccc(Br)cc1)c1ccc(NC2=NCCCS2)cc1	9.32 µM
CCOc1cc(CNC2CCCC2)cc(Cl)c1OCc1ccccc1	9.86 µM
c1ccc(-c2csc(Nc3ccccn3)n2)cc1	8.17 µM
Clc1ccccc1-c1nnc(-c2ccccc2Cl)o1	24.9 µM (inactive)
Cc1ccc(-c2noc(-c3cccs3)n2)cc1	10.7 µM
COc1cc(CNC(C)(C)CO)cc(Br)c1OCc1ccc(Cl)cc1	26.2 µM (inactive)
Brc1ccc(CSc2nnc(-c3ccco3)o2)cc1	7.06 µM
O=C(/C=C/Nc1ccc(F)c(Cl)c1)c1ccco1	12.5 µM
Cc1cc(OCc2cccc(Cl)c2)c(C)cc1CN1CCOCC1	7.19 µM

Compound	IC50
Cc1oc(-c2ccc(-c3ccccc3)cc2)nc1CN(C)C1CCOC1 (configuration not stated)	15.5 µM
Brc1ccc(-c2nc(-c3ccccc3)no2)o1	8.64 µM
COc1cc(CNC2CCCC2)cc(Cl)c1OCc1ccc(F)cc1	7.21 µM
O=C(Nc1nc(-c2ccccc2)cs1)c1cccs1	16.9 µM
Fc1ccc(COc2ccc(-c3nnco3)cc2)c(Cl)c1	2.25 µM
Fc1ccc(-c2csc(-c3ccncc3)n2)cc1	1.58 µM
COc1ccc(C(=O)Nc2nc(-c3cccs3)cs2)cc1	28.9 µM (inactive)
Clc1ccc(-c2nnc(-c3ccco3)o2)cc1	14.3 µM
O=C(Nc1nc(-c2ccc(Cl)s2)cs1)c1cccs1	58.9 µM (inactive)
O=C(Nc1nc2c(ccc3ccccc32)s1)c1ccco1	16.9 µM
CCOc1cc(CNC2CCCC2)cc(Cl)c1OCc1ccc(F)cc1	4.49 µM
c1ccc(-c2nc(-c3ccncc3)no2)cc1	6.15 µM
O=C(/C=C/c1cccs1)c1ccc(Br)cc1	12.4 µM
Cc1nc2ccccc2cc1OCc1ccc(F)cc1	7.88 µM
COc1cc(CNC(C)c2ccccc2)cc(Br)c1OCc1ccc(F)cc1 (configuration not stated)	> 64 µM (inactive)
O=C(Nc1nccs1)c1ccc2ccccc2n1	6.84 µM
c1ccc2sc(SCc3ccc(-c4nnco4)cc3)nc2c1	10.5 µM
Brc1ccc(CSc2nnc(-c3cccnc3)o2)cc1	19.1 µM
O=C(/C=C/Nc1ccc(F)c(F)c1)c1cccs1	14.3 µM

Compound	IC50
Cc1ccc(N=C/C(C(=O)C(F)(F)F)=C(\O)c2ccco2)cc1Cl	33.1 µM (inactive)
CCOc1ccc(-c2nc(-c3cccnc3)no2)cc1	9.89 µM
Cc1ccc(Nc2nc(-c3cccs3)cs2)nc1	21.8 µM (inactive)
Fc1ccc(COc2ccc(-c3nnco3)cc2)cc1	4.14 µM
Cc1ccccc1-c1noc(-c2cccs2)n1	6.42 µM
Cc1ccc(CSc2nnc(-c3ccco3)o2)cc1	22.7 µM (inactive)
O=C(Nc1nc(-c2ccc(Cl)s2)cs1)c1ccco1	8.95 µM
O=C(/C=C/Nc1ccccc1F)c1cccs1	23.2 µM (inactive)
O=C(/C=C/Nc1ccc(F)cc1F)c1ccco1	23.3 µM (inactive)
Brc1ccc(-c2nnc(-c3ccco3)o2)cc1	13.8 µM
c1ccc(Nc2nc(-c3cccs3)cs2)nc1	13.8 µM
CCc1ccc(-c2nc(-c3ccncc3)no2)cc1	11.8 µM
O=C(/C=C/Nc1ccc(Br)cc1F)c1ccco1	12.2 µM
CCOC(=O)c1c(-c2ccc(-c3ccccc3)cc2)csc1NC(=O)CNCCN(C)C	10.9 µM
Clc1ccccc1-c1nc(-c2ccncc2)no1	7.94 µM
c1ccc(SCc2cc(-c3ccccc3)no2)cc1	7.39 µM
O=C(/C=C/Nc1ccc(F)cc1F)c1cccs1	8.44 µM
c1ccc(-c2csc(-c3ccncc3)n2)cc1	7.34 µM
CCOC(=O)Nc1nc(-c2ccc(F)cc2F)cs1	4.63 µM
